Measured values taken from ChEMBL document CHEMBL4004803, “Syntheses and antibacterial activity of soluble 9-bromo substituted indolizinoquinoline-5,12-dione derivatives” (Eur J Med Chem, 2017).
≈ marks a conversion by molar mass, not a printed value.

Experiments:
Staphylococcus aureus [1] = assay: Antibacterial activity against methicillin-resistant Staphylococcus aureus 102849 clinical isolate after 20 to 24 hrs by two-fold microdilution method; assay type: functional
Staphylococcus aureus [2] = assay: Antibacterial activity against methicillin-resistant Staphylococcus aureus 1024004-2 clinical isolate after 20 to 24 hrs by two-fold microdilution method; assay type: functional
Staphylococcus aureus [3] = assay: Antibacterial activity against methicillin-resistant Staphylococcus aureus 123152 clinical isolate after 20 to 24 hrs by two-fold microdilution method; assay type: functional
Staphylococcus aureus [4] = assay: Antibacterial activity against methicillin-resistant Staphylococcus aureus 814039 clinical isolate after 20 to 24 hrs by two-fold microdilution method; assay type: functional
Staphylococcus aureus [5] = assay: Antibacterial activity against methicillin-resistant Staphylococcus aureus 109016 clinical isolate after 20 to 24 hrs by two-fold microdilution method; assay type: functional
Staphylococcus aureus [6] = assay: Antibacterial activity against methicillin-resistant Staphylococcus aureus 305026 clinical isolate after 20 to 24 hrs by two-fold microdilution method; assay type: functional
Staphylococcus aureus [7] = assay: Antibacterial activity against methicillin-resistant Staphylococcus aureus 1029025 clinical isolate after 20 to 24 hrs by two-fold microdilution method; assay type: functional
Staphylococcus aureus [8] = assay: Antibacterial activity against methicillin-resistant Staphylococcus aureus 1025022 clinical isolate after 20 to 24 hrs by two-fold microdilution method; assay type: functional
Staphylococcus aureus [9] = assay: Antibacterial activity against […] Staphylococcus aureus ATCC 25923 after 20 to 24 hrs by two-fold microdilution method; assay type: functional
Staphylococcus aureus [10] = assay: Antibacterial activity against methicillin-resistant Staphylococcus aureus 103054 clinical isolate after 20 to 24 hrs by two-fold microdilution method; assay type: functional
Staphylococcus aureus [11] = assay: Antibacterial activity against methicillin-resistant Staphylococcus aureus 1214023 clinical isolate after 20 to 24 hrs by two-fold microdilution method; assay type: functional
Staphylococcus aureus [12] = assay: Antibacterial activity against methicillin-resistant Staphylococcus aureus 504008 clinical isolate after 20 to 24 hrs by two-fold microdilution method; assay type: functional
Staphylococcus aureus [13] = assay: Antibacterial activity against methicillin-resistant Staphylococcus aureus 214026 clinical isolate after 20 to 24 hrs by two-fold microdilution method; assay type: functional
Staphylococcus aureus [14] = assay: Antibacterial activity against methicillin-resistant Staphylococcus aureus 912014 clinical isolate after 20 to 24 hrs by two-fold microdilution method; assay type: functional
Staphylococcus aureus [15] = assay: Antibacterial activity against methicillin-resistant Staphylococcus aureus 224001 clinical isolate after 20 to 24 hrs by two-fold microdilution method; assay type: functional
Staphylococcus aureus [16] = assay: Antibacterial activity against methicillin-resistant Staphylococcus aureus 110834 clinical isolate after 20 to 24 hrs by two-fold microdilution method; assay type: functional
Staphylococcus aureus [17] = assay: Antibacterial activity against methicillin-resistant Staphylococcus aureus 518036 clinical isolate after 20 to 24 hrs by two-fold microdilution method; assay type: functional
Staphylococcus aureus [18] = assay: Antibacterial activity against methicillin-resistant Staphylococcus aureus 316038 clinical isolate after 20 to 24 hrs by two-fold microdilution method; assay type: functional
Staphylococcus aureus [19] = assay: Antibacterial activity against methicillin-resistant Staphylococcus aureus 1212057-1 clinical isolate after 20 to 24 hrs by two-fold microdilution method; assay type: functional
Staphylococcus aureus [20] = assay: Antibacterial activity against methicillin-resistant Staphylococcus aureus 502025 clinical isolate after 20 to 24 hrs by two-fold microdilution method; assay type: functional
Streptococcus pyogenes = assay: Antibacterial activity against Streptococcus pyogenes ATCC 19615 after 20 to 24 hrs by two-fold microdilution method; assay type: functional
Staphylococcus aureus [21] = assay: Antibacterial activity against methicillin-resistant Staphylococcus aureus 20534 clinical isolate after 20 to 24 hrs by two-fold microdilution method; assay type: functional
Staphylococcus aureus [22] = assay: Antibacterial activity against methicillin-resistant Staphylococcus aureus 503025 clinical isolate after 20 to 24 hrs by two-fold microdilution method; assay type: functional
Staphylococcus aureus [23] = assay: Antibacterial activity against methicillin-resistant Staphylococcus aureus 111423 clinical isolate after 20 to 24 hrs by two-fold microdilution method; assay type: functional
Staphylococcus aureus [24] = assay: Antibacterial activity against methicillin-resistant Staphylococcus aureus 1024010 clinical isolate after 20 to 24 hrs by two-fold microdilution method; assay type: functional
Staphylococcus aureus [25] = assay: Antibacterial activity against methicillin-resistant Staphylococcus aureus 111625 clinical isolate after 20 to 24 hrs by two-fold microdilution method; assay type: functional
Staphylococcus aureus [26] = assay: Antibacterial activity against methicillin-resistant Staphylococcus aureus 110328-1 clinical isolate after 20 to 24 hrs by two-fold microdilution method; assay type: functional
Staphylococcus aureus [27] = assay: Antibacterial activity against methicillin-resistant Staphylococcus aureus 110432 clinical isolate after 20 to 24 hrs by two-fold microdilution method; assay type: functional
Staphylococcus aureus [28] = assay: Antibacterial activity against methicillin-resistant Staphylococcus aureus 19950 clinical isolate after 20 to 24 hrs by two-fold microdilution method; assay type: functional
Staphylococcus aureus [29] = assay: Antibacterial activity against methicillin-resistant Staphylococcus aureus 1212221 clinical isolate after 20 to 24 hrs by two-fold microdilution method; assay type: functional
Staphylococcus aureus [30] = assay: Antibacterial activity against methicillin-resistant Staphylococcus aureus 1111047-1 clinical isolate after 20 to 24 hrs by two-fold microdilution method; assay type: functional
Staphylococcus aureus [31] = assay: Antibacterial activity against methicillin-resistant Staphylococcus aureus 121969 clinical isolate after 20 to 24 hrs by two-fold microdilution method; assay type: functional
Staphylococcus aureus [32] = assay: Antibacterial activity against methicillin-resistant Staphylococcus aureus 625032 clinical isolate after 20 to 24 hrs by two-fold microdilution method; assay type: functional
Staphylococcus aureus [33] = assay: Antibacterial activity against methicillin-resistant Staphylococcus aureus 20339 clinical isolate after 20 to 24 hrs by two-fold microdilution method; assay type: functional
Staphylococcus aureus [34] = assay: Antibacterial activity against methicillin-resistant Staphylococcus aureus 1026211 clinical isolate after 20 to 24 hrs by two-fold microdilution method; assay type: functional
Staphylococcus aureus [35] = assay: Antibacterial activity against methicillin-resistant Staphylococcus aureus GLH15 clinical isolate after 20 to 24 hrs by two-fold microdilution method; assay type: functional
Staphylococcus aureus [36] = assay: Antibacterial activity against methicillin-resistant Staphylococcus aureus 11703 clinical isolate after 20 to 24 hrs by two-fold microdilution method; assay type: functional
Staphylococcus aureus [37] = assay: Antibacterial activity against methicillin-resistant Staphylococcus aureus clinical isolate after 20 to 24 hrs by two-fold microdilution method; assay type: functional
[38] = Solubility of the compound in water at 25 degC measured after shaking for 4 hrs by UV method; assay type: physicochemical; settings: water
Staphylococcus aureus [39] = assay: Antibacterial activity against methicillin-resistant Staphylococcus aureus 110325 clinical isolate after 20 to 24 hrs by two-fold microdilution method; assay type: functional
Staphylococcus aureus [40] = assay: Antibacterial activity against methicillin-resistant Staphylococcus aureus 1207026 clinical isolate after 20 to 24 hrs by two-fold microdilution method; assay type: functional
Staphylococcus aureus [41] = assay: Antibacterial activity against methicillin-resistant Staphylococcus aureus 519028 clinical isolate after 20 to 24 hrs by two-fold microdilution method; assay type: functional
Staphylococcus aureus [42] = assay: Antibacterial activity against methicillin-resistant Staphylococcus aureus 10844 clinical isolate after 20 to 24 hrs by two-fold microdilution method; assay type: functional
Staphylococcus aureus [43] = assay: Antibacterial activity against methicillin-resistant Staphylococcus aureus 202045 clinical isolate after 20 to 24 hrs by two-fold microdilution method; assay type: functional
Staphylococcus aureus [44] = assay: Antibacterial activity against methicillin-resistant Staphylococcus aureus 530231 clinical isolate after 20 to 24 hrs by two-fold microdilution method; assay type: functional
Staphylococcus aureus [45] = assay: Antibacterial activity against methicillin-resistant Staphylococcus aureus 1216052 clinical isolate after 20 to 24 hrs by two-fold microdilution method; assay type: functional
Staphylococcus aureus [46] = assay: Antibacterial activity against methicillin-resistant Staphylococcus aureus 131215 clinical isolate after 20 to 24 hrs by two-fold microdilution method; assay type: functional

## CN1CCN(CCCCCCOC(=O)c2c3c(n4cc(Br)ccc24)C(=O)c2ncccc2C3=O)CC1
Staphylococcus aureus [1]
  MIC: 0.125 µg/mL (≈ 0.226 µM)
Staphylococcus aureus [2]
  MIC: 0.25 µg/mL (≈ 0.452 µM)
Staphylococcus aureus [3]
  MIC: 0.25 µg/mL (≈ 0.452 µM)
Staphylococcus aureus [4]
  MIC: 0.5 µg/mL (≈ 0.903 µM)
Staphylococcus aureus [5]
  MIC: 0.031 µg/mL (≈ 0.056 µM)
Staphylococcus aureus [6]
  MIC: 0.25 µg/mL (≈ 0.452 µM)
Staphylococcus aureus [7]
  MIC: 0.063 µg/mL (≈ 0.114 µM)
Staphylococcus aureus [8]
  MIC: 0.125 µg/mL (≈ 0.226 µM)
Staphylococcus aureus [9]
  MIC: ≤ 0.0078 µg/mL
Staphylococcus aureus [10]
  MIC: 0.031 µg/mL (≈ 0.056 µM)
Staphylococcus aureus [11]
  MIC: 0.063 µg/mL (≈ 0.114 µM)
Staphylococcus aureus [12]
  MIC: 0.125 µg/mL (≈ 0.226 µM)
Staphylococcus aureus [13]
  MIC: 0.031 µg/mL (≈ 0.056 µM)
Staphylococcus aureus [14]
  MIC: 0.031 µg/mL (≈ 0.056 µM)
Staphylococcus aureus [15]
  MIC: 0.5 µg/mL (≈ 0.903 µM)
Staphylococcus aureus [16]
  MIC: 0.125 µg/mL (≈ 0.226 µM)
Staphylococcus aureus [17]
  MIC: 0.125 µg/mL (≈ 0.226 µM)
Staphylococcus aureus [18]
  MIC: 0.063 µg/mL (≈ 0.114 µM)
Staphylococcus aureus [19]
  MIC: 0.031 µg/mL (≈ 0.056 µM)
Staphylococcus aureus [20]
  MIC: 0.25 µg/mL (≈ 0.452 µM)
Streptococcus pyogenes
  MIC: 2 µg/mL (≈ 3.61 µM)
Staphylococcus aureus [21]
  MIC: 0.125 µg/mL (≈ 0.226 µM)
Staphylococcus aureus [22]
  MIC: 0.25 µg/mL (≈ 0.452 µM)
Staphylococcus aureus [23]
  MIC: 16 µg/mL (≈ 28.9 µM)
Staphylococcus aureus [24]
  MIC: 0.125 µg/mL (≈ 0.226 µM)
Staphylococcus aureus [25]
  MIC: 0.125 µg/mL (≈ 0.226 µM)
Staphylococcus aureus [26]
  MIC: ≤ 0.0078 µg/mL
Staphylococcus aureus [27]
  MIC: 0.125 µg/mL (≈ 0.226 µM)
Staphylococcus aureus [28]
  MIC: 0.25 µg/mL (≈ 0.452 µM)
Staphylococcus aureus [29]
  MIC: 0.063 µg/mL (≈ 0.114 µM)
Staphylococcus aureus [30]
  MIC: 1 µg/mL (≈ 1.81 µM)
Staphylococcus aureus [31]
  MIC: 0.125 µg/mL (≈ 0.226 µM)
Staphylococcus aureus [32]
  MIC: 0.125 µg/mL (≈ 0.226 µM)
Staphylococcus aureus [33]
  MIC: 0.5 µg/mL (≈ 0.903 µM)
Staphylococcus aureus [34]
  MIC: ≤ 0.0078 µg/mL
Staphylococcus aureus [35]
  MIC: 0.125 µg/mL (≈ 0.226 µM)
Staphylococcus aureus [36]
  MIC: 0.25 µg/mL (≈ 0.452 µM)
Staphylococcus aureus [37]
  MIC50: 0.125 µg/mL (≈ 0.226 µM)
  MIC90: 0.5 µg/mL (≈ 0.903 µM)
[38]
  solubility thermodynamic at 4 h: 2060 µg/mL (≈ 3720 µM)
Staphylococcus aureus [39]
  MIC: ≤ 0.0078 µg/mL
Staphylococcus aureus [40]
  MIC: 0.063 µg/mL (≈ 0.114 µM)
Staphylococcus aureus [41]
  MIC: 0.125 µg/mL (≈ 0.226 µM)
Staphylococcus aureus [42]
  MIC: ≤ 0.0078 µg/mL
Staphylococcus aureus [43]
  MIC: 0.25 µg/mL (≈ 0.452 µM)
Staphylococcus aureus [44]
  MIC: 0.5 µg/mL (≈ 0.903 µM)
Staphylococcus aureus [45]
  MIC: 16 µg/mL (≈ 28.9 µM)
Staphylococcus aureus [46]
  MIC: 0.063 µg/mL (≈ 0.114 µM)
